From patent publication US10392368B2, “Pyrazolo and triazolo bicyclic compounds as JAK kinase inhibitors” (THERAVANCE BIOPHARMA R&D IP, LLC, priority 2017, dated 2019) come the findings set out here.

Bounds are passed on as bounds.

For one assay, the system named is IL-2 stimulated pSTAT5 in CD4+ T cells. The experiment in a line: Inhibition of IL-2 stimulated pSTAT5 in CD4+ T cells isolated from murine splenocytes. To be noted: Mus musculus, AlphaLisa, read-out: pIC50, inhibition of IL-2 stimulated pSTAT5 (converted). Format: cell-based. How it is done:
The potency of test compounds for inhibition of interleukin-2 (IL-2) stimulated STAT5 phosphorylation was measured in the CD4+ T cells isolated from murine splenocytes using AlphaLisa. Because IL-2 signals through JAK3, this assay provides a measure of JAK3 cellular potency in mouse.
Phosphorylated STAT5 was measured via the AlphaLISA SureFire Ultra pSTAT5 (Tyr694/699) kit (PerkinElmer).
CD4+ T cells were isolated from murine splenocytes via negative selection on a magnetic column (Miltnyi Biotec) and re-suspended in assay media (phenol red-free DMEM (Life Technologies) supplemented with 10% FBS (ATCC)). Cells were seeded at 50,000 cells/well in assay media (2 μL/well). Compounds were serially diluted in DMSO and diluted to 2× final concentration in assay media. Compound was added (4 μl/well) and the cells incubated at 37° C., 5% CO2 for 1 hour, followed by the addition of IL-2 (R&D Systems; final concentration 7 ng/ml) in pre-warmed assay media (2 μL) for 30 minutes. After cytokine stimulation, cells were lysed with 2 μl of 5× AlphaLisa Lysis Buffer (PerkinElmer). The lysate was shaken at 900 rpm for 10 minutes at room temperature (RT). Phosphorylated STAT5 was measured via the pSTAT5 AlphaLisa kit (PerkinElmer). Freshly prepared acceptor bead mixture was dispensed onto lysate (5 ul) under green filtered <100 lux light. Plates were shaken at 900 rpm for 2 mins, briefly spun down, and incubated for 2 hrs at RT in the dark. Donor beads were dispensed (5 μl) under green filtered <100 lux light. Plates were shaken at 900 rpm for 2 mins, briefly spun down, and incubated overnight at RT in the dark. Luminescence was measured with excitation at 689 nm and emission at 570 nm using an EnVision plate reader (PerkinElmer) under green filtered <100 lux light.
To determine the inhibitory potency of test compounds in response to IL-2, the average emission intensity of beads bound to pSTAT5 was measured in primary CD4+ T cells isolated from murine splenocytes. IC50 values were determined from analysis of the inhibition curves of signal intensity vs compound concentration. Data are expressed as pIC50 (negative decadic logarithm IC50) values (mean±standard deviation).
(In Alpha technology, singlet oxygen from a donor bead excites a nearby acceptor bead.)
With `C=CC(=O)N1CC(C)(COc2nc(-c3ccc(O)c(F)c3)nc3[nH]ncc23)C1` [Compound 21, 1-(3-(((6-(3-fluoro-4-hydroxyphenyl)-1H-pyrazolo[3,4-d]pyrimidin-4-yl)oxy)methyl)-3-methylazetidin-1-yl)prop-2-en-1-one], the IC50 is under 1000 nM. The same measure, in the same setting: as for `C=CC(=O)N1CC(CC)(COc2cc(-c3ccc(O)cc3)nc3[nH]ncc23)C1` [Compound 22, 1-(3-ethyl-3-(((6-(4-hydroxyphenyl)-1H-pyrazolo[3,4-b]pyridin-4-yl)oxy)methyl)azetidin-1-yl)prop-2-en-1-one], the figure is under 1000 nM; as for `C=CC(=O)N1CC(C(C)(C)Oc2cc(-c3ccc(O)cc3)nc3[nH]ncc23)C1` [Compound 20, 1-(3-(2-((6-(4-hydroxyphenyl)-1H-pyrazolo[3,4-b]pyridin-4-yl)oxy)propan-2-yl)azetidin-1-yl)prop-2-en-1-one], under 1000 nM.

The target in the next assay is T1, JAK3 (Homo sapiens, UniProt P52333).
T1 sequence (P52333 1-1124): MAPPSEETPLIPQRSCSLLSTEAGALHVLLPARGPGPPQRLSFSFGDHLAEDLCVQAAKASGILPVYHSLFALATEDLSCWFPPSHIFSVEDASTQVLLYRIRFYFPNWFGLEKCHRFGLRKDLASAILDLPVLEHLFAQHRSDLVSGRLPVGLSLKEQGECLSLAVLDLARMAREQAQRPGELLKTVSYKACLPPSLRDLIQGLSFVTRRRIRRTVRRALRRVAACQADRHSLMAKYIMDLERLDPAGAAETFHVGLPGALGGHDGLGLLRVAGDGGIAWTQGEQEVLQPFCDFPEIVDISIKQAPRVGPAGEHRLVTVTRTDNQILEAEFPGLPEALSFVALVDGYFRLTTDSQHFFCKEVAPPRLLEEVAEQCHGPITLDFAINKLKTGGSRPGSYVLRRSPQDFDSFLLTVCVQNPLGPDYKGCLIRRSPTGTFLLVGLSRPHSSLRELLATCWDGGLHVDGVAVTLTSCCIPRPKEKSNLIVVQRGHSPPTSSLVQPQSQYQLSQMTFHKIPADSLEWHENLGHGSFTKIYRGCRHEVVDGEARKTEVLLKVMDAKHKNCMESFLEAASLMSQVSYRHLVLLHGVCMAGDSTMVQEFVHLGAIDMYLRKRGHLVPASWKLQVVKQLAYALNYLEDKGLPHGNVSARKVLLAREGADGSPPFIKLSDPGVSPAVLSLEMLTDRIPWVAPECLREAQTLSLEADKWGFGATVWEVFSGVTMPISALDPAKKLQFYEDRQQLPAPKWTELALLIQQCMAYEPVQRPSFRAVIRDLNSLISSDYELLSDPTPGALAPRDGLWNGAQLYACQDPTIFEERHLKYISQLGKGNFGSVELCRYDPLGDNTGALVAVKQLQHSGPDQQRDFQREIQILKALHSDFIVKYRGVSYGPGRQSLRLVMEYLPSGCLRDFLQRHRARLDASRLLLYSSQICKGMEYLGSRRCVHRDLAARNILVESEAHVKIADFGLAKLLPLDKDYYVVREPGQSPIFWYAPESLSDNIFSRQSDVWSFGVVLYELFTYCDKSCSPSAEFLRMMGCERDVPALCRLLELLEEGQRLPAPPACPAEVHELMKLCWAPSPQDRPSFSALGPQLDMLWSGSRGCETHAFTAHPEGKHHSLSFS
The experiment in a line: Co-crystal structures bound to human JAK3. To be noted: ATP binding site of human JAK3. From the text: Co-crystal structures were obtained for compounds 1, 3 and 4 each bound to human JAK3. The resolutions for the complex structures were at 2.73 Å, 2.80 Å, and 2.64 Å respectively for compound 1, compound 3 and compound 4. […] Based on a distance of less than 3.5 Å of the donor and acceptor atoms four specific hydrogen bonds were identified for each of the ligands, namely to the main chain atoms of Glu903, Leu905 and Phe968 as well as the side chain atoms of Glu871. An additional hydrogen bond was identified for compound 1 to the side chain atoms of Asp 912. […] The S—H moiety of the cysteine residue performs an addition reaction to the Michael system. The observed results of the covalent binding interaction in the crystal structures confirms the irreversible binding nature for each of these ligands to JAK3.
For `CN(C)C/C=C/C(=O)N1CC(C(C)(C)Oc2cc(-c3ccc(O)c(Cl)c3)cc3[nH]ncc23)C1` [Compound 3, (E)-1-(3-(2-((6-(3-chloro-4-hydroxyphenyl)-1H-indazol-4-yl)oxy)propan-2-yl)azetidin-1-yl)-4-(dimethylamino)but-2-en-1-one], the “binding mode in co-crystal structure” value is “covalently bound to Cys909 of JAK3”. For `CN(C)C/C=C/C(=O)N1CC(COc2cc(-c3ccc(O)cc3)cc3[nH]ncc23)C1` [Compound 1, (E)-4-(dimethylamino)-1-(3-(((6-(4-hydroxyphenyl)-1H-indazol-4-yl)oxy)methyl)azetidin-1-yl)but-2-en-1-one], the “binding mode in co-crystal structure” value was “covalently bound to Cys909 of JAK3”. For the compound `C=CC(=O)N1CC(COc2nc(-c3ccc(O)cc3)nc3[nH]ncc23)C1` [Compound 4, 1-(3-(((6-(4-hydroxyphenyl)-1H-pyrazolo[3,4-d]pyrimidin-4-yl)oxy)methyl)azetidin-1-yl)prop-2-en-1-one], the “binding mode in co-crystal structure” value is “covalently bound to Cys909 of JAK3”.
